Source: patent publication US9956293B2, “Targeted therapeutics” (Madrigal Pharmaceuticals, Inc., priority 2014, dated 2018)

tested on: HER2; assay: HER2 degradation assay with BT-474 cell line (Example 12, FACS); assay type: cell-based; details: Homo sapiens, BT-474; SDC-TRAPs of the 52nd table

SMILES	IC50 [nM]
CCNC(=O)c1nnc(-c2cc(C(C)C)c(O)cc2O)n1-c1ccc(Oc2ccc(C(=O)NC(Cc3ccccc3)C(=O)Nc3cc(-c4cnoc4-c4cc(OC)c(OC)c(OC)c4)ccc3OC)cc2)cc1 (centres unmarked) [SDC-TRAP-0158, 5-(2,4-dihydroxy-5-isopropylphenyl)-N-ethyl-4-(4-(4-((1-((2-methoxy-5-(5-(3,4,5-trimethoxyphenyl)isoxazol-4-yl)phenyl)amino)-1-oxo-3-phenylpropan-2-yl)carbamoyl)phenoxy)phenyl)-4H-1,2,4-triazole-3-carboxamide]	> 5000

same assay, conditions: Homo sapiens; BT-474 cells

SMILES	IC50 [nM]
CC(C)c1cc(-c2nnc(O)n2-c2ccc(CN3CCN(C(=O)O[C@H]4CC[C@@]5(C)C(=CC[C@@H]6[C@@H]5CC[C@]5(C)C(c7cccnc7)=CC[C@@H]65)C4)CC3)cc2)c(O)cc1O [SDC-TRAP-0150, (3S,8R,9S,10R,13S,14S)-10,13-dimethyl-17-(pyridin-3-yl)-2,3,4,7,8,9,10,11,12,13,14,15-dodecahydro-1H-cyclopenta[a]phenanthren-3-yl 4-(4-(3-(2,4-dihydroxy-5-isopropylphenyl)-5-hydroxy-4H-1,2,4-triazol-4-yl)benzyl) piperazine-1-carboxylate]	1410
CC(C)c1cc(-c2nnc(O)n2-c2ccc3c(ccn3CCOCCNC(=O)O[C@H]3CC[C@@]4(C)C(=CC[C@@H]5[C@@H]4CC[C@]4(C)C(c6cccnc6)=CC[C@@H]54)C3)c2)c(O)cc1O [SDC-TRAP-0151, (3S,8R,9S,10R,13S,14S)-10,13-dimethyl-17-(pyridin-3-yl)-2,3,4,7,8,9,10,11,12,13,14,15-dodecahydro-1H-cyclopenta[a]phenanthren-3-yl (2-(2-(5-(3-(2,4-dihydroxy-5-isopropylphenyl)-5-hydroxy-4H-1,2,4-triazol-4-yl)-1H-indol-1-yl)ethoxy)ethyl)carbamate]	1190
CC(C)c1cc(-c2nnc(O)n2-c2ccc(CC3CCN(C(=O)O[C@H]4CC[C@@]5(C)C(=CC[C@@H]6[C@@H]5CC[C@]5(C)C(c7cccnc7)=CC[C@@H]65)C4)CC3)cc2)c(O)cc1O [SDC-TRAP-0153, (3S,8R,9S,10R,13S,14S)-10,13-dimethyl-17-(pyridin-3-yl)-2,3,4,7,8,9,10,11,12,13,14,15-dodecahydro-1H-cyclopenta[a]phenanthren-3-yl 4-(4-(3-(2,4-dihydroxy-5-isopropylphenyl)-5-hydroxy-4H-1,2,4-triazol-4-yl)benzyl) piperidine-1-carboxylate]	6340
CC(C)c1cc(-c2nnc(O)n2-c2ccc(N3CCN(C(=O)c4ccc(COC(=O)Nc5cccc6c5CN(C5CCC(=O)NC5=O)C6=O)cc4)CC3)cc2)c(O)cc1O (centres unmarked) [SDC-TRAP-0156, 4-(4-(4-(3-(2,4-Dihydroxy-5-isopropylphenyl)-5-hydroxy-4H-1,2,4-triazol-4-yl)phenyl)piperazine-1-carbonyl)benzyl (2-(2,6-dioxopiperidin-3-yl)-1-oxoisoindolin-4-yl)carbamate]	3500
CC(C)c1cc(-c2nnc(O)n2-c2ccc(CN3CCN(C(=O)c4ccc(COC(=O)Nc5cccc6c5CN(C5CCC(=O)NC5=O)C6=O)cc4)CC3)c(F)c2)c(O)cc1O (centres unmarked) [SDC-TRAP-0157, 4-(4-(4-(3-(2,4-dihydroxy-5-isopropylphenyl)-5-hydroxy-4H-1,2,4-triazol-4-yl)-2-fluorobenzyl)piperazine-1-carbonyl)benzyl (2-(2,6-dioxopiperidin-3-yl)-1-oxoisoindolin-4-yl)carbamate]	696
CC(C)c1cc(-c2nnc(O)n2-c2ccc(CN3CCN(C(=O)c4cnc(C(=O)Nc5cccc6c5CN(C5CCC(=O)NC5=O)C6=O)cn4)CC3)c(F)c2)c(O)cc1O (centres unmarked) [SDC-TRAP-0160, 5-(4-(4-(3-(2,4-dihydroxy-5-isopropylphenyl)-5-hydroxy-4H-1,2,4-triazol-4-yl)-2-fluorobenzyl)piperazine-1-carbonyl)-N-(2-(2,6-dioxopiperidin-3-yl)-1-oxoisoindolin-4-yl)pyrazine-2-carboxamide]	239
CCNC(=O)c1nnc(-c2cc(C(C)C)c(O)cc2O)n1-c1ccc(CN2CCC(C(=O)N[C@H](C(=O)Nc3cccc4c3CN(C3CCC(=O)NC3=O)C4=O)C(C)C)CC2)cc1 (stereo partly drawn) [SDC-TRAP-0163, 1-(4-(3-(2,4-dihydroxy-5-isopropylphenyl)-5-(ethylcarbamoyl)-4H-1,2,4-triazol-4-yl)benzyl)-N-((2S)-1-((2-(2,6-dioxopiperidin-3-yl)-1-oxoisoindolin-4-yl)amino)-3-methyl-1-oxobutan-2-yl)piperidine-4-carboxamide]	885
CCNC(=O)c1nnc(-c2cc(C(C)C)c(O)cc2O)n1-c1ccc(CN2CCC(C(=O)N3CCC[C@H]3C(=O)Nc3cccc4c3CN(C3CCC(=O)NC3=O)C4=O)CC2)cc1 (stereo partly drawn) [SDC-TRAP-0164, 5-(2,4-dihydroxy-5-isopropylphenyl)-4-(4-((4-((2S)-2-((2-(2,6-dioxopiperidin-3-yl)-1-oxoisoindolin-4-yl)carbamoyl)pyrrolidine-1-carbonyl)piperidin-1-yl)methyl)phenyl)-N-ethyl-4H-1,2,4-triazole-3-carboxamide]	493
CC(C)c1cc(-c2nnc(O)n2-c2ccc(CN3CCN(c4cnc(C(=O)Nc5cccc6c5CN(C5CCC(=O)NC5=O)C6=O)cn4)CC3)c(F)c2)c(O)cc1O (centres unmarked) [SDC-TRAP-0170, 5-(4-(4-(3-(2,4-dihydroxy-5-isopropylphenyl)-5-hydroxy-4H-1,2,4-triazol-4-yl)-2-fluorobenzyl)piperazin-1-yl)-N-(2-(2,6-dioxopiperidin-3-yl)-1-oxoisoindolin-4-yl)pyrazine-2-carboxamide]	296
CC(C)c1cc(-c2nnc(O)n2-c2ccc(CN3CCN(C(=O)c4ccc(COC(=O)Nc5cccc6c5CN(C5CCC(=O)NC5=O)C6=O)cc4F)CC3)c(F)c2)c(O)cc1O (centres unmarked) [SDC-TRAP-0174, 4-(4-(4-(3-(2,4-dihydroxy-5-isopropylphenyl)-5-hydroxy-4H-1,2,4-triazol-4-yl)-2-fluorobenzyl)piperazine-1-carbonyl)-3-fluorobenzyl (2-(2,6-dioxopiperidin-3-yl)-1-oxoisoindolin-4-yl)carbamate]	693
CCNC(=O)c1nnc(-c2cc(C(C)C)c(O)cc2O)n1-c1ccc(C(=O)N2CCN(C(=O)c3ccc(COC(=O)Nc4cccc5c4CN(C4CCC(=O)NC4=O)C5=O)cc3)CC2)cc1 (centres unmarked) [SDC-TRAP-0177, 4-(4-(4-(3-(2,4-dihydroxy-5-isopropylphenyl)-5-(ethylcarbamoyl)-4H-1,2,4-triazol-4-yl)benzoyl)piperazine-1-carbonyl)benzyl (2-(2,6-dioxopiperidin-3-yl)-1-oxoisoindolin-4-yl)carbamate]	4350
CCNC(=O)c1nnc(-c2cc(C(C)C)c(O)cc2O)n1-c1ccc(C(=O)N[C@@H](CC(C)C)C(=O)Nc2cccc3c2CN(C2CCC(=O)NC2=O)C3=O)cc1 (stereo partly drawn) [SDC-TRAP-0189, 5-(2,4-dihydroxy-5-isopropylphenyl)-4-(4-(((2S)-1-((2-(2,6-dioxopiperidin-3-yl)-1-oxoisoindolin-4-yl)amino)-4-methyl-1-oxopentan-2-yl)carbamoyl)phenyl)-N-ethyl-4H-1,2,4-triazole-3-carboxamide]	1090
CCNC(=O)c1nnc(-c2cc(C(C)C)c(O)cc2O)n1-c1ccc(C(=O)N2CCC[C@H]2C(=O)Nc2cccc3c2CN(C2CCC(=O)NC2=O)C3=O)cc1 (stereo partly drawn) [SDC-TRAP-0190, 5-(2,4-dihydroxy-5-isopropylphenyl)-4-(4-((2S)-2-((2-(2,6-dioxopiperidin-3-yl)-1-oxoisoindolin-4-yl)carbamoyl)pyrrolidine-1-carbonyl)phenyl)-N-ethyl-4H-1,2,4-triazole-3-carboxamide]	> 5000

The next lines start with the values.

IC50 [nM]	SMILES
4330	CCNC(=O)c1nnc(-c2cc(C(C)C)c(O)cc2O)n1-c1ccc(C(=O)N(C)CC(=O)Nc2cccc3c2CN(C2CCC(=O)NC2=O)C3=O)cc1 (centres unmarked) [SDC-TRAP-0147, 5-(2,4-dihydroxy-5-isopropylphenyl)-4-(4-((2-((2-(2,6-dioxopiperidin-3-yl)-1-oxoisoindolin-4-yl)amino)-2-oxoethyl)(methyl)carbamoyl)phenyl)-N-ethyl-4H-1,2,4-triazole-3-carboxamide]
1690	CCNC(=O)c1nnc(-c2cc(C(C)C)c(O)cc2O)n1-c1ccc(CN2CCC(C(=O)Nc3cccc4c3CN(C3CCC(=O)NC3=O)C4=O)CC2)cc1 (centres unmarked) [SDC-TRAP-0149, 1-(4-(3-(2,4-dihydroxy-5-isopropylphenyl)-5-(ethylcarbamoyl)-4H-1,2,4-triazol-4-yl)benzyl)-N-(2-(2,6-dioxopiperidin-3-yl)-1-oxoisoindolin-4-yl)piperidine-4-carboxamide]
1190	CC(C)c1cc(-c2nnc(O)n2-c2ccc3c(c2)cc(CN2CCC(COC(=O)Nc4cccc5c4CN(C4CCC(=O)NC4=O)C5=O)CC2)n3C)c(O)cc1O (centres unmarked) [SDC-TRAP-0155, (1-((5-(3-(2,4-dihydroxy-5-isopropylphenyl)-5-hydroxy-4H-1,2,4-triazol-4-yl)-1-methyl-1H-indol-2-yl)methyl)piperidin-4-yl)methyl (2-(2,6-dioxopiperidin-3-yl)-1-oxoisoindolin-4-yl)carbamate]
> 5000	CCNC(=O)c1nnc(-c2cc(C(C)C)c(O)cc2O)n1-c1ccc(C(=O)N[C@@H](C)C(=O)Nc2cccc3c2CN(C2CCC(=O)NC2=O)C3=O)cc1 (stereo partly drawn) [SDC-TRAP-0166, 5-(2,4-dihydroxy-5-isopropylphenyl)-4-(4-(((2S)-1-((2-(2,6-dioxopiperidin-3-yl)-1-oxoisoindolin-4-yl)amino)-1-oxopropan-2-yl)carbamoyl)phenyl)-N-ethyl-4H-1,2,4-triazole-3-carboxamide]
2630	CC(C)c1cc(-c2nnc(O)n2-c2ccc(N3CCN(C(=O)c4ccc(COC(=O)Nc5cccc6c5CN(C5CCC(=O)NC5=O)C6=O)cc4)CC3)nc2)c(O)cc1O (centres unmarked) [SDC-TRAP-0175, 4-(4-(5-(3-(2,4-dihydroxy-5-isopropylphenyl)-5-hydroxy-4H-1,2,4-triazol-4-yl)pyridin-2-yl)piperazine-1-carbonyl)benzyl (2-(2,6-dioxopiperidin-3-yl)-1-oxoisoindolin-4-yl)carbamate]
3950	CCNC(=O)c1nnc(-c2cc(C(C)C)c(O)cc2O)n1-c1ccc(C(=O)N[C@H](C(=O)Nc2cccc3c2CN(C2CCC(=O)NC2=O)C3=O)C(C)C)cc1 (stereo partly drawn) [SDC-TRAP-0188, 5-(2,4-dihydroxy-5-isopropylphenyl)-4-(4-(((2S)-1-((2-(2,6-dioxopiperidin-3-yl)-1-oxoisoindolin-4-yl)amino)-3-methyl-1-oxobutan-2-yl)carbamoyl)phenyl)-N-ethyl-4H-1,2,4-triazole-3-carboxamide]
